Source: ChEMBL document CHEMBL1136307, “Novel chromene derivatives as TNF-alpha inhibitors” (Bioorg Med Chem Lett, 2003)

Experiment: Inhibitory activity against TNF-alpha production in human peripheral blood mononuclear cells(PBMC) using an ELISA assay
Assay type: functional

Row | SMILES | IC50
1 | COc1ccc2c(c1)OC(c1cc(OC)c(OC)c(OC)c1)C(C(C)=O)=C2 (centres undefined) | 0.1 µM
2 | COc1ccc2c(c1)OC(c1cc(OC)c(OC)c(OC)c1)C(C=O)=C2 (centres undefined) | 0.6 µM
3 | COc1ccc2c(c1)OC(c1cc(OC)c(OC)c(OC)c1)C(C(=O)NC(C)(C)C)=C2 (centres undefined) | > 50 µM
4 | CCCC(=O)C1=Cc2ccc(OC)cc2OC1c1cc(OC)c(OC)c(OC)c1 (centres undefined) | 4.7 µM
5 | COc1ccc2c(c1)OC(c1cc(OC)c(OC)c(OC)c1)C(C(=O)OC(C)C)=C2 (centres undefined) | 12 µM
6 | COc1ccc2c(c1)OC(c1cc(OC)c(OC)c(OC)c1)C(C#N)=C2 (centres undefined) | 0.6 µM
7 | COc1ccc2c(c1)OC(c1cc(OC)c(OC)c(OC)c1)C(/C=N/O)=C2 (centres undefined) | 4.1 µM
8 | COc1ccc2c(c1)OC(c1cc(OC)c(OC)c(OC)c1)C(C(=O)OC(C)(C)C)=C2 (centres undefined) | 13 µM
9 | CNC(=O)C1=Cc2ccc(OC)cc2OC1c1cc(OC)c(OC)c(OC)c1 (centres undefined) | 8.1 µM
10 | COc1ccc2c(c1)OC(c1cc(OC)c(OC)c(OC)c1)C(C(N)=O)=C2 (centres undefined) | 0.6 µM
11 | CCCCNC(=O)C1=Cc2ccc(OC)cc2OC1c1cc(OC)c(OC)c(OC)c1 (centres undefined) | 31.3 µM
12 | COc1ccc2c(c1)OC(c1cc(OC)c(OC)c(OC)c1)C(C(=O)Nc1ccccc1)=C2 (centres undefined) | > 50 µM
13 | CCOC(=O)C1=Cc2ccc(OC)cc2OC1c1cc(OC)c(OC)c(OC)c1 (centres undefined) | 7 µM
14 | CCNC(=O)C1=Cc2ccc(OC)cc2OC1c1cc(OC)c(OC)c(OC)c1 (centres undefined) | 17.9 µM
15 | COc1ccc2c(c1)OC(c1cc(OC)c(OC)c(OC)c1)C(C(=O)O)=C2 (centres undefined) | > 50 µM
16 | COc1ccc2c(c1)OC(c1cc(OC)c(OC)c(OC)c1)C(C(=O)OCCc1ccccc1)=C2 (centres undefined) | > 50 µM
17 | COc1ccc2c(c1)OC(c1cc(OC)c(OC)c(OC)c1)C(CO)=C2 (centres undefined) | 2.4 µM
18 | COc1ccc2c(c1)OC(c1cc(OC)c(OC)c(OC)c1)C=C2 (centres undefined) | 11.6 µM
19 | COc1ccc2c(c1)OC(c1cc(OC)c(OC)c(OC)c1)C(C(=O)NC(C)C)=C2 (centres undefined) | 41.6 µM
20 | COc1ccc2c(c1)OC(c1cc(OC)c(OC)c(OC)c1)C(C(=O)N1CCCCC1)=C2 (centres undefined) | 48 µM
21 | COc1ccc2c(c1)OC(c1cc(OC)c(OC)c(OC)c1)C(C(=O)N(C)C)=C2 (centres undefined) | > 50 µM
22 | COC(=O)C1=Cc2ccc(OC)cc2OC1c1cc(OC)c(OC)c(OC)c1 (centres undefined) | 2 µM
23 | CCOCC1=Cc2ccc(OC)cc2OC1c1cc(OC)c(OC)c(OC)c1 (centres undefined) | 1.1 µM
24 | COc1ccc2c(c1)OC(c1cc(OC)c(OC)c(OC)c1)C(C(=O)N(C)OC)=C2 (centres undefined) | 31.1 µM
